Measurements taken from EP1863471B9, “USE OF ANGELIC ACID ESTERS AS AN ANTIPHLOGISTIC ACTIVE INGREDIENT AND ANTIPHLOGISTIC PREPARATIONS” (Miltitz Aromatics GmbH, priority 2005, dated 2006).
Like-named read-outs stand apart in the source and are kept apart here.

What was measured:
[1] = system: Carrageenin-induzierten Rattenpfotenödem; details: literature values from V. Jakovlev et al., Journal of Medicinal Plant Research 35 (1979), 125-140, corresponding test conditions, cited from earlier work
[2] = system: Carrageenin-induzierten Rattenpfotenödem; test: Carrageenin-induced rat paw oedema, oral administration of test substance; assay type: in vivo, Ratte; details: for ED50: oral administration, calculated from dose-dependent percent inhibition of oedema development, own tests
Description: Die antiinflammatorische Wirkung von Isobutylangelat wurde am Carrageenin-induzierten ([…]) Rattenpfotenödem getestet. Isobutylangelat wurde oral verabreicht.
Die Testbedingungen entsprachen den in der Literatur verwendeten, so dass Quervergleiche hergestellt werden konnten. (V. Jakovlev et al. in Journal of Medicinal Plant Research 35 (1979), 125-140).
Als Vergleichssubstanz in den eigenen Tests diente (-)-alpha-Bisabolol. Dosisabhängig wurde die prozentuale Hemmung der Ödementwichlung bestimmt. Daraus ließ sich der ED50 Wert errechnen.
Dosierungen von 100, 464, 1000 und 2150 mg Isobutylangelat/kg Körpergewicht wurden getestet. Die Ergebnisse wurden mit den für eine Kontrollgruppe (0,8 % Hydroxypropylmethylcellulose Gel) und zusätzlich den für die positive Kontrolle ((-)-alpha- Bisabolol) erhaltenen Werten verglichen.

SMILES | ED50 [1] | further results
CC(C)=CCC[C@](C)(O)[C@@H]1CC=C(C)CC1 [Dragosantol] | > 3000 mg/kg | –
CC1=CCC(C2(C)CCC(O)C(C)(C)O2)CC1 (stereo not drawn) [Bisabololoxid A] | 3164 mg/kg | –
CC1=CC[C@@H]([C@]2(C)CCC(=O)C(C)(C)O2)CC1 [Bisabolonoxid] | > 2000 mg/kg | –
C/C=C(/C)C(=O)OCC(C)C [Isobutylangelat] | – | ED50 [2]: 2310 mg/kg; minimal effective dose ([2]; oral, doses tested 100, 464, 1000 and 2150 mg/kg body weight, read-out: dosisabhängige antiinflammatorische Wirkung, beginnend bei): ≥ 100 mg/kg
CC(C)=CCC[C@](C)(O)[C@@H]1CC=C(C)CC1 [(-)-alpha-Bisabolol] | – | ED50 ([1]; listed as (-) alpha Bisabolol): 1465 mg/kg; ED50 [2]: 1540 mg/kg
CC1=CCC(C2(C)CCC(C(C)(C)O)O2)CC1 (stereo not drawn) [Bisabololoxid B] | > 2000 mg/kg | –
CC(C)=CCC[C@@](C)(O)[C@H]1CC=C(C)CC1 [(+) alpha Bisabolol] | > 2000 mg/kg | –
